According to patent US5723485A, “1,2-Diarylindole derivatives, processes for their preparation and their uses in therapeutics” (Laboratories UPSA, priority 1996, dated 1998):

What was measured:
[1] = molecular target: T1, COX-1 (purified enzyme from ram seminal vesicles) (Ovis aries, UniProt P05979); assay: Inhibition of COX-1 enzymatic activity (PGE2 determined by EIA); format: biochemical; conditions: arachidonic acid 6 μM, mean ± standard deviation, 4 determinations; for inhibition at 10 µM: 10^-5 M; for inhibition at 0.1 µM: 10^-7 M
T1 construct: purified enzyme from ram seminal vesicles; from tissue; host or cells: ram seminal vesicles
T1 sequence (P05979 25-600): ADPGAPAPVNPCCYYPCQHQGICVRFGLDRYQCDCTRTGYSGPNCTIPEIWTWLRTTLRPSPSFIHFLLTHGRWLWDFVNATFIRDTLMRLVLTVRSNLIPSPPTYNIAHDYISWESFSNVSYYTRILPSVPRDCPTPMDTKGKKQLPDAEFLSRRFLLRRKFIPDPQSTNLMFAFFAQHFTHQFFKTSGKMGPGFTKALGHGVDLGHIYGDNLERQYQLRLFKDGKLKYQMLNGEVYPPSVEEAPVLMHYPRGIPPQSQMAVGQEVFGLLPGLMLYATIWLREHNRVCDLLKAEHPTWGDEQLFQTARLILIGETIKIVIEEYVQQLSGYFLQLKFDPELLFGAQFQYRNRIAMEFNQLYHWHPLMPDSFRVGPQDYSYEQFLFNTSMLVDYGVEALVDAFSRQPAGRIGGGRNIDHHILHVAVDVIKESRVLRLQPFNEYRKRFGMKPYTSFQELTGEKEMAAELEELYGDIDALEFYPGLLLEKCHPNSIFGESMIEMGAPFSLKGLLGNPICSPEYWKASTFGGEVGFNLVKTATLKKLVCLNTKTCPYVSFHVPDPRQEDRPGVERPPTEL
Protocol: (§1) The molecule studied is preincubated for 10 minutes at 25° C. with 2 U of COX-1 (purified enzyme from ram seminal vesicles) or 1 U of COX-2 (purified enzyme from ewe placenta). Arachidonic acid (6 μM for COX-1, 4 μM for COX-2) is added to the reaction medium and incubation is carried out for 5 minutes at 25° C. When incubation has ended, the enzymatic reaction is stopped by the addition of 1N HCl and the PGE2 produced is determined by EIA. The results are expressed as the percentage inhibition of the COX-1 and COX-2 enzymatic activities and correspond to mean (±) standard deviations from the average of 4 determinations.

[2] = molecular target: T2, COX-2 (purified enzyme from ewe placenta) (Ovis aries, UniProt P79208); assay: Inhibition of COX-2 enzymatic activity (PGE2 determined by EIA); format: biochemical; conditions: arachidonic acid 4 μM, mean ± standard deviation, 4 determinations; for inhibition at 10 µM: 10^-5 M
T2 construct: purified enzyme from ewe placenta; from tissue; host or cells: ewe placenta
T2 sequence (P79208 17-603): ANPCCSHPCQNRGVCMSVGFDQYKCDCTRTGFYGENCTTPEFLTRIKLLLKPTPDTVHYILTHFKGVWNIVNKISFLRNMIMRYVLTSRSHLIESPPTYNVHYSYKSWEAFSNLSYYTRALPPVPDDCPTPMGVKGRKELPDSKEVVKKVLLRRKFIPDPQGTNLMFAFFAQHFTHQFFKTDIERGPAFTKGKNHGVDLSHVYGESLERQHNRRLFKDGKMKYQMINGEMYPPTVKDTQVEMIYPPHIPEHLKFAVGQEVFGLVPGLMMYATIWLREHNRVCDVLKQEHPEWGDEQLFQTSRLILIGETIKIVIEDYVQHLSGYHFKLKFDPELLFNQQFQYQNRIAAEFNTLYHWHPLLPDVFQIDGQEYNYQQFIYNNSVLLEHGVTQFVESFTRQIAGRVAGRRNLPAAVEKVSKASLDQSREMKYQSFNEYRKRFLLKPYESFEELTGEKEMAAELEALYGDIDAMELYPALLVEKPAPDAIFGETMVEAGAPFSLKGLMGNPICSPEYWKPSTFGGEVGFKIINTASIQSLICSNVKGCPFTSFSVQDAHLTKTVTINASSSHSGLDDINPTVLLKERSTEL
Protocol: as §1

CS(=O)(=O)c1ccc(-c2cc3ccccc3n2-c2ccc(F)cc2)cc1 [Example 16, 1-(4-Fluorophenyl)-2-[4-(methylsulfonyl)phenyl]indole]
inhibition at 10 µM [1]: 36 ± 14%
inhibition at 0.1 µM [1]: 4 ± 4%
inhibition at 10 µM [2]: 83 ± 2%
inhibition at 0.1 µM ([2]; 10^-7 M): 29 ± 2%

Cc1ccc(-n2c(-c3ccc(S(C)(=O)=O)cc3)cc3ccccc32)cc1 [Example 17, 1-(4-Methylphenyl)-2-[4-(methylsulfonyl)phenyl]indole]
inhibition at 10 µM [1]: 29 ± 5%
inhibition at 0.1 µM [1]: 2 ± 2%
inhibition at 10 µM [2]: 89 ± 2%

CS(=O)(=O)c1ccc(-c2cc3ccccc3n2-c2ccccc2)cc1 [Example 18, 1-Phenyl-2-[4-(methylsulfonyl)phenyl]indole]
inhibition at 10 µM [1]: 23 ± 6%
inhibition at 0.1 µM [1]: 2 ± 2%
inhibition at 10 µM [2]: 88 ± 2%

CS(=O)(=O)c1ccc(-c2cc3ccccc3n2-c2ccc(Cl)cc2)cc1 [Example 19, 1-(4-Chlorophenyl)-2-[4-(methylsulfonyl)phenyl]indole]
inhibition at 10 µM [2]: 95%
